Source: patent US20170348258A1, “3-Amino Benzamide Derivative Serving As B-Lactam Auxiliary Antibiotic, Preparation Method and Use Thereof” (THE HONG KONG POLYTECHNIC UNIVERSITY, priority 2014, published 2017)

Columns and labels:
MRSA strain 1344 = assay: FICI of F332 with antibiotics; assay type: cell-based, S. aureus
MRSA strain 1136 = assay: FICI of F332 with antibiotics; assay type: cell-based, S. aureus
MRSA strain 2973 = assay: FICI of F332 with antibiotics; assay type: cell-based, S. aureus
MRSA strain 2895 = assay: FICI of F332 with antibiotics; assay type: cell-based, S. aureus
MRSA strain 2516 = assay: FICI of F332 with antibiotics; assay type: cell-based, S. aureus
MRSA strain 2919 = assay: FICI of F332 with antibiotics; assay type: cell-based, S. aureus
MRSA strain 3267 = assay: FICI of F332 with antibiotics; assay type: cell-based, S. aureus
MRSA strain 2224 = assay: FICI of F332 with antibiotics; assay type: cell-based, S. aureus
MRSA strain 1402 = assay: FICI of F332 with antibiotics; assay type: cell-based, S. aureus
MRSA strain 3589 = assay: FICI of F332 with antibiotics; assay type: cell-based, S. aureus
MRSA strain 774 = assay: FICI of F332 with antibiotics; assay type: cell-based, S. aureus
MRSA strain 254 = assay: FICI of F332 with antibiotics; assay type: cell-based, S. aureus
MRSA strain 417 = assay: FICI of F332 with antibiotics; assay type: cell-based, S. aureus
[1] = biological target: T1, B. subtilis FtsZ-eGFP fusion protein (Bacillus subtilis, UniProt P17865); assay: Fluorescence microscopy of FtsZ-eGFP localization; assay type: cell-based; conditions: 3 μM F332, 4 hours
T1 construct: expressed in transfected cells; host or cells: B. subtilis 168 transformed with pFZ-FtsZ-eGFP
Method: The localization of the filamentation in B. subtilis that induced by F332 was performed by fluorescence microscopy using the cell division protein FtsZ identified by a green fluorescent protein. The expression plasmid of the FtsZ-eGFP fusion protein was constructed as follows (the structure of the plasmid was shown in FIG. 10a).
to amplify the eGFP gene fragment, with about 700 base pairs. Two fragments were ligated by overlap extension PCR method and then digested with endonucleases EcoRI and BamHI. They were ligated into the corresponding cleavage site of pFZ2.0 and transformed into E. coli BL21 (DE3) and screened on chloramphenicol plates to obtain the plasmid pFZ-FtsZ-eGFP. The plasmid extracted was transformed into B. subtilis 168 and grown in LB medium containing chloramphenicol. The expression of FtsZ-eGFP gene was observed by adding different concentrations of lactose or IPTG
The B. subtilis shown in FIGS. 10b and 10c was cultured in the absence of F332.
The B. subtilis shown in FIGS. 10d and 10e was cultured in the presence of F332. […] Thus, the expression of the protein was not only at the position where cell division was performed.

MRSA strain 757 = assay: FICI of F332 with antibiotics; assay type: cell-based, S. aureus
Method: The bacterial strains used in this study were clinically isolated MRSA strains USA300#757 and #2960 which were obtained from our laboratory. Determination of the Fractional Inhibitory Concentration Index (FICI) was adopted by the Müller-Hinton broth (MHB) dilution method as previously described. Twelve serial two-fold dilutions of PC190723, F332 and F361 were prepared in the 96-well microplate with concentration ranging from 512 to 0.25 μg/mL. […] Lastly, the compounds and the β-lactams were mixed at a 1:1 ratio and subjected to two-fold dilution as described previously. Each microplate well contained 100 μL of MHB supplemented with compounds alone, β-lactams alone or the mixture of compounds and β-lactams. Overnight cultures of S. aureus in the Müller-Hinton broth was diluted to OD595 of 0.08-0.1 in saline and added in each of the microplate well. The plates were incubated at 37° C. for 20 h. All tests were performed in duplicate and the inhibition of bacterial growth was determined by visualization. The FICI of compounds and β-lactams were calculated as followed: FICI=(MIC of combination of compound and β-lactam/MIC of compound alone)+(MIC of combination of compound and β-lactam/MIC of β-lactam alone).

CCCCCCCCCNc1ccc(F)c(C(N)=O)c1F [Compound F332, 2,6-difluoro-3-(nonylamino)benzamide]
FICI of F332 combined with Amoxicillin (MRSA strain 1344): 1.13
FICI of F332 combined with Cefuroxime (MRSA strain 1344): 0.27
FICI of F332 combined with Cloxacillin (MRSA strain 1344): 0.13
FICI of F332 combined with Meropenem (MRSA strain 1344): 2.00
FICI of F332 combined with Meticillin (MRSA strain 1344): 0.27
FICI of F332 combined with Amoxicillin (MRSA strain 1136): 1.03
FICI of F332 combined with Cefuroxime (MRSA strain 1136): 0.13
FICI of F332 combined with Cloxacillin (MRSA strain 1136): 0.38
FICI of F332 combined with Meropenem (MRSA strain 1136): 4.50
FICI of F332 combined with Meticillin (MRSA strain 1136): 0.31
FICI of F332 combined with Amoxicillin (MRSA strain 2973): 0.08
FICI of F332 combined with Cefuroxime (MRSA strain 2973): 0.53
FICI of F332 combined with Cloxacillin (MRSA strain 2973): 0.07
FICI of F332 combined with Meropenem (MRSA strain 2973): 4.03
FICI of F332 combined with Meticillin (MRSA strain 2973): 0.28
FICI of F332 combined with Amoxicillin (MRSA strain 2895): 1.06
FICI of F332 combined with Cefuroxime (MRSA strain 2895): 0.31
FICI of F332 combined with Cloxacillin (MRSA strain 2895): 0.38
FICI of F332 combined with Meropenem (MRSA strain 2895): 2.13
FICI of F332 combined with Meticillin (MRSA strain 2895): 0.31
FICI of F332 combined with Amoxicillin (MRSA strain 2516): 0.38
FICI of F332 combined with Cefuroxime (MRSA strain 2516): 0.07
FICI of F332 combined with Cloxacillin (MRSA strain 2516): 0.19
FICI of F332 combined with Meropenem (MRSA strain 2516): 0.38
FICI of F332 combined with Meticillin (MRSA strain 2516): 0.19
FICI of F332 combined with Amoxicillin (MRSA strain 2919): 0.51
FICI of F332 combined with Cefuroxime (MRSA strain 2919): 0.25
FICI of F332 combined with Cloxacillin (MRSA strain 2919): 0.31
FICI of F332 combined with Meropenem (MRSA strain 2919): 4.25
FICI of F332 combined with Meticillin (MRSA strain 2919): 0.38
FICI of F332 combined with Amoxicillin (MRSA strain 3267): 0.25
FICI of F332 combined with Cefuroxime (MRSA strain 3267): 0.01
FICI of F332 combined with Cloxacillin (MRSA strain 3267): 0.25
FICI of F332 combined with Meropenem (MRSA strain 3267): 4.01
FICI of F332 combined with Meticillin (MRSA strain 3267): 0.07
FICI of F332 combined with Amoxicillin (MRSA strain 2224): 0.19
FICI of F332 combined with Cefuroxime (MRSA strain 2224): 0.25
FICI of F332 combined with Cloxacillin (MRSA strain 2224): 0.25
FICI of F332 combined with Meropenem (MRSA strain 2224): 4.01
FICI of F332 combined with Meticillin (MRSA strain 2224): 0.13
FICI of F332 combined with Amoxicillin (MRSA strain 1402): 1.02
FICI of F332 combined with Cefuroxime (MRSA strain 1402): 0.63
FICI of F332 combined with Cloxacillin (MRSA strain 1402): 0.75
FICI of F332 combined with Meropenem (MRSA strain 1402): 5.00
FICI of F332 combined with Meticillin (MRSA strain 1402): 0.56
FICI of F332 combined with Amoxicillin (MRSA strain 3589): 1.06
FICI of F332 combined with Cefuroxime (MRSA strain 3589): 0.25
FICI of F332 combined with Cloxacillin (MRSA strain 3589): 0.31
FICI of F332 combined with Meropenem (MRSA strain 3589): 1.50
FICI of F332 combined with Meticillin (MRSA strain 3589): 0.52
FICI of F332 combined with Amoxicillin (MRSA strain 774): 0.03
FICI of F332 combined with Cefuroxime (MRSA strain 774): 0.01
FICI of F332 combined with Cloxacillin (MRSA strain 774): 0.50
FICI of F332 combined with Meropenem (MRSA strain 774): 0.13
FICI of F332 combined with Meticillin (MRSA strain 774): 0.26
FICI of F332 combined with Amoxicillin (MRSA strain 254): 0.56
FICI of F332 combined with Cefuroxime (MRSA strain 254): 0.25
FICI of F332 combined with Cloxacillin (MRSA strain 254): 0.19
FICI of F332 combined with Meropenem (MRSA strain 254): 1.50
FICI of F332 combined with Meticillin (MRSA strain 254): 0.25
FICI of F332 combined with Amoxicillin (MRSA strain 417): 0.27
FICI of F332 combined with Cefuroxime (MRSA strain 417): 0.06
FICI of F332 combined with Cloxacillin (MRSA strain 417): 0.09
FICI of F332 combined with Meropenem (MRSA strain 417): 0.19
FICI of F332 combined with Meticillin (MRSA strain 417): 0.06
localization of FtsZ-eGFP in B. subtilis 168 cells [1]: Green fluorescence appeared in multiple parts of B. subtilis cells
FICI of F332 combined with Amoxicillin (MRSA strain 757): 0.27
FICI of F332 combined with Cefuroxime (MRSA strain 757): 0.08
FICI of F332 combined with Cloxacillin (MRSA strain 757): 0.13
FICI of F332 combined with Meropenem (MRSA strain 757): 1.06
FICI of F332 combined with Meticillin (MRSA strain 757): 0.09
